These results are taken from patent US12084458B2, “Substituted pyridines, pyridazines, and pyrimidines as TYK2 inhibitors” (Sudo Biosciences Limited, priority 2021, dated 2024).

Where only a bound is given, the exact number is not on record here.

The target in one assay is T1, TYK2 kinase domain (JH1) (Homo sapiens, UniProt P29597).
T1 construct: recombinant purified His or GST-tagged catalytic domain for each enzyme; made in house
T1 sequence (P29597 897-1176 limits assumed): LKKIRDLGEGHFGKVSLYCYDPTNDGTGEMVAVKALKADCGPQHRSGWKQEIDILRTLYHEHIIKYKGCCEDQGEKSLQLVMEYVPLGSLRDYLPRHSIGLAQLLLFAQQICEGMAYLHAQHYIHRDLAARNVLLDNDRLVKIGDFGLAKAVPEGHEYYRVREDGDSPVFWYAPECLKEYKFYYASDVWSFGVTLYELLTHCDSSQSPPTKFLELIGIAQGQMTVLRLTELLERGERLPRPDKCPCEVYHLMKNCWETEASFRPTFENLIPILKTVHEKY
In words: HTRF-based selectivity assay, TYK2 catalytic domain. As to conditions: recombinant catalytic domain, ATP 20 μM. The format is biochemical. On the procedure:
(§1) Example B-2: HTRF-Based Selectivity Assay
(§2) The ability of compounds to inhibit the activity of JAK1, JAK2, JAK3 and TYK2 is measured using a recombinant purified His or GST-tagged catalytic domain for each enzyme (JAK1, JAK2 and TYK2 are generated in-house; JAK3 was purchased from Carna biosciences, Cat #08-046) in an HTRF format biochemical assay. The reactions employs a commercial peptide substrate from Cisbio (Cat #62TK0PEC). The basic assay protocol is as follows: first, 2.5 μL of diluted compounds (4×) in DMSO are dispensed into a 384-well Optiplate. Next, 2.5 μL of enzyme (final concentrations for enzymes are: TYK2—700 ng/mL, JAK1—80.6 ng/mL, JAK2—2.1 ng/mL and JAK3—171.8 ng/mL) is added and incubated at RT for 5-20 min. Finally, 5 μl of mixture of 2× ATP [Final concentration 20 μM for TYK2, 21.43 μM for JAK1, 14.7 μM for JAK2 and 2.12 μM for JAK3]+2× Substrate [Final concentration 217 nM for TYK2, 454.7 nM for JAK1, 200 nM for JAK2 and 257.4 nM for JAK3] is added to 384 well Optiplate. Composition of Kinase assay buffer used in the assay is as follows: HEPES 50 mM, EGTA 1 mM, MgCl2 10 mM, DTT 2 mM, Tween-20 0.01% and water. Then the plates are shaken and then incubated at 26.5° C. for 60 min.

In assay [1] the test system is HEK-Blue IL-23 cells (IL-23-stimulated STAT3 SEAP reporter; TYK2 JH2). In words: HEK-Blue IL-23 SEAP reporter assay for profiling TYK2 pseudokinase (JH2) inhibition. Format: cell-based. As to conditions: 10 ng/mL human recombinant IL-23, SEAP reporter, read-out: IL23 (TYK2 inhibitory activity, IC50). Summed up: (§3)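 Cells plated 20-22 h at 37 °C, 5% CO2 in DMEM with 10% heat-inactivated FBS, then pretreated with serially diluted compound for 60 min. Stimulation: 10 ng/mL human recombinant IL-23 for 22-24 h, or 1 ng/mL human recombinant IFNα for 16-18 h. SEAP induction read with QUANTI-Blue.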

Assay [2] deals with HEK-Blue IL-2 reporter cells (IL-2-stimulated STAT5 SEAP reporter). In words: HEK-Blue IL-2 SEAP reporter assay for determining selectivity. Format: cell-based. As to conditions: 4 ng/mL human recombinant IL-2. Summed up:
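Cells were plated for 20-22 h, then pretreated with serially diluted compound for 60 min. They were stimulated for 24 h with 4 ng/mL human recombinant IL-2 or 50 ng/mL human recombinant IFNγ, and SEAP induction was read with QUANTI-Blue.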

Assay [3] concerns HEK-Blue IFNα/β cells (IFNα-stimulated STAT1 SEAP reporter; TYK2 JH2). The experiment in a line: HEK-Blue IFNα/β SEAP reporter assay for profiling TYK2 pseudokinase (JH2) inhibition. Format: cell-based. As to conditions: Homo sapiens, HEK-Blue, 1 ng/mL human recombinant IFNα, read-out: IFNα (TYK2 inhibitory activity, IC50). Summed up:
as §3

For assay [4], the system named is HEK-Blue IFNγ reporter cells (IFNγ-stimulated STAT1 SEAP reporter). The experiment in a line: HEK-Blue IFNγ SEAP reporter assay for determining selectivity. The format is cell-based. As to conditions: Homo sapiens, HEK-Blue, 50 ng/mL human recombinant IFNγ, read-out: IFN-γ (SEAP selectivity, IC50). On the procedure: Example B-3: HEK-Blue™ IL-2 and IFNγ Reporter Assays for Determining Selectivity
HEK-Blue™ IL-2 and IFNγ reporter cells with a stably-integrated cytokine receptor and STAT5 or STAT1 express STAT-inducible secreted embryonic alkaline phosphatase (SEAP) reporter gene upon cytokine stimulation. These cells were plated in DMEM (Gibco) containing 10% heat-inactivated FBS (Gibco) and 100 U/mL PenStrep (Gibco) at 37° C. under 5% CO2 conditions for 20-22 hours. The cells were then pretreated with serially diluted test compounds for 60 min prior to stimulation with either 4 ng/mL human recombinant IL-2 (Miltenyl Biotech) or 50 ng/mL human recombinant IFNγ (InvivoGen) for 24 hours. SEAP induction was measured using the QUANTI-Blue™ Solution (InvivoGen) according to the manufacturer's instructions.

The target in the next assay is T2, JAK1 kinase domain (JH1) (Homo sapiens, UniProt P23458).
T2 construct: recombinant purified His or GST-tagged catalytic domain for each enzyme; made in house
T2 sequence (P23458 875-1153 limits assumed): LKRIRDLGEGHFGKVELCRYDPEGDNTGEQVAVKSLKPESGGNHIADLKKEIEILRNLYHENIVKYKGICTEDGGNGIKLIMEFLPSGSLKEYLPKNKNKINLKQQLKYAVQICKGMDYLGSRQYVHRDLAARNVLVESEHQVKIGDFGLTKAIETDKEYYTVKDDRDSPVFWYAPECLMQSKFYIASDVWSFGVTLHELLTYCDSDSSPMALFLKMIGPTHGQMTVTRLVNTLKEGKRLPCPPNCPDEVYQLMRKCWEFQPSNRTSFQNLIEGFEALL
The experiment in a line: HTRF-based selectivity assay, JAK1 catalytic domain. The format is biochemical. As to conditions: recombinant catalytic domain, ATP 21.43 μM. On the procedure:
as §1, §2

The target in a further assay is T3, JAK3 kinase domain (JH1) (Homo sapiens, UniProt P52333).
T3 construct: recombinant purified His or GST-tagged catalytic domain for each enzyme; purchased Carna biosciences 08-046
T3 sequence (P52333 822-1111 limits assumed): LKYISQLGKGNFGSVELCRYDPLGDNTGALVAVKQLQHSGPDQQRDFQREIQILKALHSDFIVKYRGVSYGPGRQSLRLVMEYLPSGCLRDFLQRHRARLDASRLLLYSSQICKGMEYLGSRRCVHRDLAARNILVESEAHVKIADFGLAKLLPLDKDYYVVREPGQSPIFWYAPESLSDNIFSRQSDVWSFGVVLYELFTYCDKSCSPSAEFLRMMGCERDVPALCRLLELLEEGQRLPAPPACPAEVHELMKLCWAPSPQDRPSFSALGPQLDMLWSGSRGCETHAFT
The experiment in a line: HTRF-based selectivity assay, JAK3 catalytic domain. Format: biochemical. As to conditions: recombinant catalytic domain, ATP 2.12 μM. On the procedure:
as §1, §2

Regarding `[2H]C([2H])([2H])NC(=O)c1cnc(NC(=O)C2CC2)cc1Nc1cccc2c1N(C)Cc1nc(C)nn1-2` [Compound 4, 6-(cyclopropanecarboxamido)-4-((2,5-dimethyl-4,5-dihydro-[1,2,4]triazolo[1,5-a]quinoxalin-6-yl)amino)-N-(methyl-d3)nicotinamide], the IC50 at TYK2 kinase domain (JH1) is > 1000 nM; in assay [1], < 30 nM; in assay [2], > 1000 nM; in assay [3], < 30 nM; in assay [4], 300 to 1000 nM; on JAK1 kinase domain (JH1), > 1000 nM. Besides, the IC50 on JAK3 kinase domain (JH1) is > 1000 nM.
Take `[2H]C([2H])([2H])NC(=O)c1nnc(NC(=O)C2CC2)cc1Nc1cc(F)cc2c1N(C)Cc1nc(C)nn1-2` [Compound 90, 6-(cyclopropanecarboxamido)-4-((8-fluoro-2,5-dimethyl-4,5-dihydro-[1,2,4]triazolo[1,5-a]quinoxalin-6-yl)amino)-N-(methyl-d3)pyridazine-3-carboxamide]: the IC50 in assay [1] was < 30 nM; in assay [2], > 1000 nM; in assay [3], 30 to 300 nM; in assay [4] it was 30 to 300 nM.
In the case of `[2H]C([2H])([2H])NC(=O)c1nnc(NC(=O)C2CC2)cc1Nc1nccc2c1N(C)Cc1nn(C([2H])([2H])[2H])nc1-2` [Compound 91, 6-(cyclopropanecarboxamido)-N-(methyl-d3)-4-((5-methyl-2-(methyl-d3)-4,5-dihydro-2H-[1,2,3]triazolo[4,5-c][1,7]naphthyridin-6-yl)amino)pyridazine-3-carboxamide], the IC50 was < 30 nM in assay [1], > 1000 nM in assay [2], < 30 nM in assay [3] and 30 to 300 nM in assay [4].
Consider `[2H]C([2H])([2H])NC(=O)c1cnc(NC(=O)C2CC2)cc1Nc1nccc2c1N(C)Cc1nn(C([2H])([2H])[2H])nc1-2` [Compound 92, 6-(cyclopropanecarboxamido)-N-(methyl-d3)-4-((5-methyl-2-(methyl-d3)-4,5-dihydro-2H-[1,2,3]triazolo[4,5-c][1,7]naphthyridin-6-yl)amino)nicotinamide], for which the IC50 in assay [1] was < 30 nM; in assay [2], 300 to 1000 nM; in assay [3], < 30 nM; in assay [4], 30 to 300 nM.
`[2H]C([2H])([2H])NC(=O)c1nnc(NC(=O)C2CC2)cc1Nc1nccc2c1N(C)Cc1nn(CC)nc1-2` [Compound 93, 6-(cyclopropanecarboxamido)-4-((2-ethyl-5-methyl-4,5-dihydro-2H-[1,2,3]triazolo[4,5-c][1,7]naphthyridin-6-yl)amino)-N-(methyl-d3)pyridazine-3-carboxamide]: the IC50 in assay [1] is < 30 nM; in assay [2], 300 to 1000 nM; in assay [3], < 30 nM; in assay [4], 300 to 1000 nM.
Consider `[2H]C([2H])([2H])NC(=O)c1nnc(NC(=O)C2CC2)cc1Nc1nccc2c1N(C)C([2H])([2H])c1nn(C)nc1-2` [Compound 96, 6-(cyclopropanecarboxamido)-4-((2,5-dimethyl-4,5-dihydro-2H-[1,2,3]triazolo[4,5-c][1,7]naphthyridin-6-yl-4,4-d2)amino)-N-(methyl-d3)pyridazine-3-carboxamide], for which the IC50 in assay [1] was < 30 nM; in assay [2] it was 300 to 1000 nM; in assay [3], < 30 nM; in assay [4] it was 30 to 300 nM.
As for `[2H]C([2H])([2H])NC(=O)c1cnc(NC(=O)C2CC2)cc1Nc1nccc2c1N(C)C([2H])([2H])c1nn(C)nc1-2` [Compound 97, 6-(cyclopropanecarboxamido)-4-((2,5-dimethyl-4,5-dihydro-2H-[1,2,3]triazolo[4,5-c][1,7]naphthyridin-6-yl-4,4-d2)amino)-N-(methyl-d3)nicotinamide], the IC50 in assay [1] was < 30 nM; in assay [2], > 1000 nM; in assay [3] it was < 30 nM; in assay [4], 300 to 1000 nM.
For the molecule `[2H]C([2H])([2H])NC(=O)c1cnc(NC(=O)NC)cc1Nc1cc(F)cc2c1N(C)Cc1nc(C)nn1-2` [Compound 101, 4-((8-fluoro-2,5-dimethyl-4,5-dihydro-[1,2,4]triazolo[1,5-a]quinoxalin-6-yl)amino)-N-(methyl-d3)-6-(3-methylureido)nicotinamide], the IC50 in assay [1] was 30 to 300 nM; in assay [2] it was > 1000 nM; in assay [3], 300 to 1000 nM; in assay [4] it was > 1000 nM.
`[2H]C([2H])([2H])NC(=O)c1cnc(Nc2cc(C)nc(C)n2)cc1Nc1cc(F)cc2c1N(C)Cc1nc(C)nn1-2` [Compound 102, 6-((2,6-dimethylpyrimidin-4-yl)amino)-4-((8-fluoro-2,5-dimethyl-4,5-dihydro-[1,2,4]triazolo[1,5-a]quinoxalin-6-yl)amino)-N-(methyl-d3)nicotinamide]: the half-maximal inhibitory concentration (IC50) in assay [1] is < 30 nM; in assay [2], 300 to 1000 nM; in assay [3], < 30 nM; in assay [4], 30 to 300 nM.
For the molecule `[2H]C([2H])([2H])NC(=O)c1nnc(NC(=O)C2CC2)cc1Nc1ccc(F)c2c1N(C)Cc1nc(C)nn1-2` [Compound 105, 6-(cyclopropanecarboxamido)-4-((9-fluoro-2,5-dimethyl-4,5-dihydro-[1,2,4]triazolo[1,5-a]quinoxalin-6-yl)amino)-N-(methyl-d3)pyridazine-3-carboxamide], the IC50 is < 30 nM in assay [1], > 1000 nM in assay [2], 30 to 300 nM in assay [3] and > 1000 nM in assay [4].
In the case of `[2H]C([2H])([2H])NC(=O)c1cnc(NC(=O)C2CC2)cc1Nc1ccc(F)c2c1N(C)Cc1nc(C)nn1-2` [Compound 107, 6-(cyclopropanecarboxamido)-4-((9-fluoro-2,5-dimethyl-4,5-dihydro-[1,2,4]triazolo[1,5-a]quinoxalin-6-yl)amino)-N-(methyl-d3)nicotinamide], the IC50 was < 30 nM in assay [1], > 1000 nM in assay [2], 30 to 300 nM in assay [3] and > 1000 nM in assay [4].
With `[2H]C([2H])([2H])NC(=O)c1nnc(NC(=O)NC)cc1Nc1nccc2c1N(C)Cc1nn(C)nc1-2` [Compound 108, 4-((2,5-dimethyl-4,5-dihydro-2H-[1,2,3]triazolo[4,5-c][1,7]naphthyridin-6-yl)amino)-N-(methyl-d3)-6-(3-methylureido)pyridazine-3-carboxamide], the IC50 in assay [1] was < 30 nM; in assay [2] it was 30 to 300 nM; in assay [3], < 30 nM; in assay [4], > 1000 nM.
